From ChEMBL document CHEMBL4390655, “N,N-bis-heteroaryl methylamines: Potent anti-mitotic and highly cytotoxic agents” (Eur J Med Chem, 2019)
Calls of active or inactive are those of the source. The calls are words filed in the database; no cut-off is given here.

Key:
HCT-116 [1] = assay: Cell cycle arrest in human HCT116 cells assessed as accumulation at G0/G1 phase at 1 nM incubated for 24 hrs by propidium iodide staining based flow cytometry (reference value: 37%); type: functional
HCT-116 [2] = assay: Cell cycle arrest in human HCT116 cells assessed as accumulation at G2/M phase at 10 nM incubated for 24 hrs by propidium iodide staining based flow cytometry (reference value: 23%); type: functional
[3] = Cytotoxicity against human A2780R cells assessed as reduction in cell growth measured after 72 hrs by MTS assay; type: functional, cell-based
HCT-116 [4] = assay: Cell cycle arrest in human HCT116 cells assessed as accumulation at G2/M phase at 1 nM incubated for 24 hrs by propidium iodide staining based flow cytometry (reference value: 23%); type: functional
HCT-116 [5] = assay: Cell cycle arrest in human HCT116 cells assessed as accumulation at G0/G1 phase at 5 nM incubated for 24 hrs by propidium iodide staining based flow cytometry (reference value: 37%); type: functional
HCT-116 [6] = assay: Cell cycle arrest in human HCT116 cells assessed as accumulation at G2/M phase incubated for 24 hrs by propidium iodide staining based flow cytometry; type: functional
HCT-116 [7] = assay: Cell cycle arrest in human HCT116 cells assessed as accumulation at S phase at 10 nM incubated for 24 hrs by propidium iodide staining based flow cytometry (reference value: 40%); type: functional
HCT-116 [8] = assay: Cell cycle arrest in human HCT116 cells assessed as accumulation at G2/M phase at 5 nM incubated for 24 hrs by propidium iodide staining based flow cytometry (reference value: 23%); type: functional
HCT-116 [9] = assay: Cytotoxicity against human HCT116 cells assessed as reduction in cell growth measured after 72 hrs by MTS assay; type: functional, cell-based
HCT-116 [10] = assay: Induction of apoptosis in human HCT116 cells assessed as caspase-3/7 activation at 0.1 to 10 nM after 24 hrs by Apo-one caspase 3/7 assay; type: functional, cell-based
K562 = assay: Cytotoxicity against human K562 cells assessed as reduction in cell growth measured after 72 hrs by MTS assay; type: functional, cell-based; settings: K562, 72 h
HCT-116 [11] = assay: Cell cycle arrest in human HCT116 cells assessed as accumulation at G0/G1 phase at 10 nM incubated for 24 hrs by propidium iodide staining based flow cytometry (reference value: 37%); type: functional
HCT-116 [12] = assay: Cell cycle arrest in human HCT116 cells assessed as accumulation at S phase at 5 nM incubated for 24 hrs by propidium iodide staining based flow cytometry (reference value: 40%); type: functional
K-562R = assay: Cytotoxicity against human K562R cells assessed as reduction in cell growth measured after 72 hrs by MTS assay; type: functional, cell-based
[13] = Inhibition of sheep brain tubulin polymerization in presence of GTP by DAPI based fluorimetric method; set-up: species or system Ovis aries
JIMT-1 = assay: Cytotoxicity against human JIMT1 cells assessed as reduction in cell growth measured after 72 hrs by MTS assay; type: functional, cell-based; settings: JIMT-1, 72 h
A2780 = assay: Cytotoxicity against human A2780 cells assessed as reduction in cell growth measured after 72 hrs by MTS assay; type: functional, cell-based; settings: A2780, 72 h
MIA PaCa-2 = assay: Cytotoxicity against human MIAPaCa2 cells assessed as reduction in cell growth measured after 72 hrs by MTS assay; type: functional, cell-based; settings: MIA PaCa-2, 72 h
HUVEC [14] = assay: Antivascular activity against HUVEC assessed as reduction in capillary like tube formation by measuring disruption of cell network integrity at 10 nM measured up to 5 hrs by matrigel method relative to control; type: functional, cell-based; settings: Homo sapiens
HCT-116 [15] = assay: Cell cycle arrest in human HCT116 cells assessed as accumulation at S phase at 1 nM incubated for 24 hrs by propidium iodide staining based flow cytometry (reference value: 40%); type: functional
[16] = Antiproliferative activity against HUVEC assessed as growth inhibition after 72 hrs; type: cell-based; settings: human, HUVEC cells
HUVEC [17] = assay: Antiproliferative activity against human HUVEC assessed as growth inhibition up to 5 hrs; type: cell-based
[18] = Homo sapiens, HCT-116, 72 h, read-out: IC50

| Structure (SMILES) | IC50 (HCT-116 [9]; [18]) | IC50 ([13]; read-out: IC50) | IC50 [13] | other results |
| --- | --- | --- | --- | --- |
| Cc1cc(N(C)c2ccc3c(c2)c2ccccc2n3C)c2ccccc2n1 | 0.07 nM | 1130 nM | – | Activity (HCT-116 [1]): 35%; Activity (HCT-116 [2]): 82%; IC50 [3]: 0.54 nM; Activity (HCT-116 [4]): 25%; Activity (HCT-116 [5]): 8%; Activity (HCT-116 [6]): Dose-dependent effect; Activity (HCT-116 [7]): 18%; Activity (HCT-116 [8]): 80%; Activity (HCT-116 [10]): Dose-dependent effect; IC50 (K562): 0.6 nM; Activity (HCT-116 [11]): 0%; Activity (HCT-116 [12]): 12%; IC50 (K-562R): 0.28 nM; IC50 (JIMT-1): 0.36 nM; IC50 (A2780): 0.53 nM; IC50 (MIA PaCa-2): 0.47 nM; Activity (HUVEC [14]): Active; Activity (HCT-116 [15]): 40%; GI50 at 72 h [16]: 3.23 nM; Activity (HUVEC [17]): Non-Toxic |
| Cc1cc(N(C)c2ccc3c(c2)c2cc([N+](=O)[O-])ccc2n3C)c2ccccc2n1 | – | – | Not Active | IC50 (HCT-116 [9]; hct-116): Not Active |
| Cc1cc(N(C)c2ccc3oc4ccccc4c3c2)c2ccccc2n1 | 844 nM | – | Not Active | – |
| CCn1c2ccccc2c2cc(N(C)c3cc(C)nc4ccccc34)ccc21 | 186 nM | – | Not Active | – |
| C=C(c1cc(N(C)c2cc(C)nc3ccccc23)ccc1OC)c1cc(C)nc2ccccc12 | 969 nM | – | Not Active | – |
| CN(c1ccc2c(c1)c1ccccc1n2C)c1cc(Cl)nc2ccccc12 | 16.7 nM | 1160 nM | – | – |
| Cc1cc(N(C)c2ccc3c(c2)c2cc(N)ccc2n3C)c2ccccc2n1 | 2.88 nM | 2760 nM | – | – |
| Cc1cc(N(C)c2ccc3c(c2)OCCO3)c2ccccc2n1 | 20.7 nM | 4080 nM | – | – |
| Cc1cc(N(C)c2ccc3c(c2)c2cc(C(C)O)ccc2n3C)c2ccccc2n1 (stereo not given) | 219 nM | – | Not Active | – |
| CN(c1ccc2c(c1)c1ccccc1n2C)c1cc(C#N)nc2ccccc12 | 12 nM | 1400 nM | – | – |
| Cc1cc(N(C)c2ccc3c(c2)c2ccccc2n3C)c2cc([N+](=O)[O-])ccc2n1 | 623 nM | – | Not Active | – |
| COc1ccc(N(C)c2cc(C)nc3ccccc23)nc1O | 205 nM | – | Not Active | – |
| CN(c1ccc2c(c1)c1ccccc1n2C)c1ccnc2ccccc12 | 943 nM | – | Not Active | – |
| Cc1nc(N(C)c2ccc3c(c2)c2ccccc2n3C)c2ccccc2n1 | 2.4 nM | 3800 nM | – | – |
| Cc1cc(N(C)c2ccc3c(ccn3C)c2)c2ccccc2n1 | 2 nM | 1340 nM | – | – |
| Cc1cc(N(C)c2ccc3c(c2)c2ccccc2n3C)c2cccc(O)c2n1 | 50.6 nM | 1240 nM | – | – |
| Cc1cc(N(C)c2ccc3c(c2)c2ccccc2n3C)c2cc(N)ccc2n1 | 24.5 nM | 5760 nM | – | – |
| CN(c1ccc2c(ccn2C)c1)c1cc(C(F)(F)F)nc2ccccc12 | 3.28 nM | 2500 nM | – | – |
| COc1cccc2c(N(C)c3ccc4c(c3)c3ccccc3n4C)cc(C)nc12 | 21.6 nM | 1480 nM | – | – |
| Cc1cc(N(C)c2ccc3c(c2)c2ccccc2n3C)ccn1 | 879 nM | – | Not Active | – |
| COc1ccc2c(ccn2-c2cc(C)nc3ccccc23)c1 | 482 nM | – | Not Active | – |
| CN(c1ccc2c(ccn2C)c1)c1nc(Cl)nc2ccccc12 | 0.2 nM | 1190 nM | – | IC50 [3]: 2.34 nM; IC50 (K562): 0.77 nM; IC50 (K-562R): 1.77 nM; IC50 (JIMT-1): 0.52 nM; IC50 (A2780): 0.24 nM; IC50 (MIA PaCa-2): 0.62 nM |
| CN(c1ccc2c(c1)c1ccccc1n2C)c1cc(C(F)(F)F)nc2ccccc12 | 847 nM | – | Not Active | – |
| COc1ccc(N(C)c2cc(C)nc3ccccc23)nc1N | 1.73 nM | 900 nM | – | – |
| C=C(c1ccc(OC)c(O)c1)c1cc(OC)c(OC)c(OC)c1 | 1.8 nM | 1000 nM | – | IC50 [3]: 2.66 nM; IC50 (JIMT-1): 3.08 nM; IC50 (A2780): 3.01 nM; IC50 (MIA PaCa-2): 5 nM |
| Cc1cc(N(C)c2ccc3[nH]c4ccccc4c3c2)c2ccccc2n1 | – | – | Not Active | IC50 (HCT-116 [9]; hct-116): Not Active |
| COc1ccc(N(C)c2cc(C)nc3ccccc23)nc1Cl | 462 nM | – | Not Active | – |
| Cc1cc(N(C)c2ccc3c(c2)c2ccccc2n3Cc2ccccc2)c2ccccc2n1 | – | – | Not Active | IC50 (HCT-116 [9]; hct-116): Not Active |
| Cn1c2ccccc2c2cc([N+](C)(C)c3ccnc4ccccc34)ccc21.[I-] | 891 nM | – | Not Active | – |
| CN(c1ccc2c(c1)c1ccccc1n2C)c1nc(Cl)nc2ccccc12 | 1.06 nM | 3140 nM | – | – |
